In patent publication US9096615B2, “Bridged bicyclic amino thiazine dioxide compounds as inhibitors of beta-secretase and methods of use thereof” (AMGEN INC., priority 2013, dated 2015) one finds IC50 data, which are given here for six molecules.

In one test the target is T1, Cathepsin D (Cat D) (Homo sapiens, UniProt P07339).
T1 construct: made in house; host or cells: CHO cells
Briefly: In vitro enzymatic Cathepsin D (Cat D) FRET assay. It counts as biochemical. The following applies: average IC50; first procedure; read-out: CatD IC50. Put shortly:
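Fluorescence (500 nm excitation, 580 nm emission) was measured after Tris quench of a 1 h cleavage of 20 nM quenched peptide substrate. Before that, 9 nM CHO-expressed human Cat D sat with compound for 1 h at pH 3.5 (0.05 M citrate, 5 mM CHAPS, 10% DMSO final).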

The next test deals with BACE1 (Homo sapiens, UniProt P56817). Briefly: In vitro enzymatic BACE FRET assay. Type of test: biochemical. Conditions: average IC50; read-out: BACE1 Enzyme assay IC50. An outline of the steps: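 Fluorescence (excitation 488 nm, […]) from cleavage of quenched peptide substrate (50 nM), reaction run 1 h after 1 h enzyme–inhibitor pre-incubation, then neutralised with Tris. Conditions: 0.2 nM enzyme, pH 4.2 acetate 0.05 M, 10% DMSO final, 100 uM genapol.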

The subject of test [1] is Aβ40 in conditioned medium of cells stably expressing Amyloid Precursor Protein (APP). Briefly: In vitro BACE cell-based assay (HEK cell assay, Aβ40 sandwich ELISA). The following applies: Homo sapiens, HEK293; average IC50; read-out: BACE1 cell assay IC50. An outline of the steps:
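IC50 was derived from percent-of-control Aβ40 against concentration, with Aβ40 quantified by time-resolved fluorescence ELISA (pAb40/6E10-biotin, 4 °C incubations). Supernatants were sampled after 24 h of compound exposure (10 points, starting 100 or 10 μM, 0.1% DMSO) of cells stably expressing APP.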

Structures are written as SMILES.

Chain of BACE1 (P56817 46-501, species assumed): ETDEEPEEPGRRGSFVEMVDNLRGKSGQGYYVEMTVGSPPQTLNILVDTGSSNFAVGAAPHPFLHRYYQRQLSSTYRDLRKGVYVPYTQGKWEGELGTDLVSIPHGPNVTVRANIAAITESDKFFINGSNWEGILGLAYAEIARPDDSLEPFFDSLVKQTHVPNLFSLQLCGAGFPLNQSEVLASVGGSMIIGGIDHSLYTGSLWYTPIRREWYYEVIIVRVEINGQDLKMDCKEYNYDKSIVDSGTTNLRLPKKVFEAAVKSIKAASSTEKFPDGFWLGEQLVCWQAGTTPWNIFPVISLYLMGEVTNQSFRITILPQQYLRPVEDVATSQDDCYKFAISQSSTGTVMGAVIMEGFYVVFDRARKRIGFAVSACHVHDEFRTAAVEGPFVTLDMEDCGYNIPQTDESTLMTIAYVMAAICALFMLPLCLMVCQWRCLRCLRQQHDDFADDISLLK
T1 sequence (P07339 65-412, species assumed): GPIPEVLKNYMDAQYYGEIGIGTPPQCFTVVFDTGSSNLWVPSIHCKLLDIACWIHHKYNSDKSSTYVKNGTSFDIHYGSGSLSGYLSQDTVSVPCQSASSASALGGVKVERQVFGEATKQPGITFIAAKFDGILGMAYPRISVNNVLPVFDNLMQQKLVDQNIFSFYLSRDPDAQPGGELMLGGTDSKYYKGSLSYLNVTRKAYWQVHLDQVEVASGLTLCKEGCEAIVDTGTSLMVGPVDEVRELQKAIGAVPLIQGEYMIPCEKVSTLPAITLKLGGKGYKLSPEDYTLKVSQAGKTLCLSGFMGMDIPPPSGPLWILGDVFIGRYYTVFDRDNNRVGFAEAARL

Usually IC50 stands for the concentration at which inhibition is half-maximal. Turning to `COc1cnc2c(Nc3ccc(F)c([C@@]4(C)N=C(N)[C@@]5(C)CC[C@@H]4S5(=O)=O)c3)ncc(F)c2c1` [Example 78, N-(3-((1S,2R,5R)-4-amino-2,5-dimethyl-8,8-dioxido-8-thia-3-azabicyclo[3.2.1]oct-3-en-2-yl)-4-fluorophenyl)-5-fluoro-3-methoxy-1,7-naphthyridin-8-amine], the figures for the IC50 (at Cathepsin D (Cat D); on BACE1; in test [1]) were 3240 µM, 0.003 µM and 0.012 µM, respectively.

In the case of `COc1cnc2c(Nc3ccc(F)c([C@@]4(C)N=C(N)[C@@]5(CF)CC[C@@H]4S5(=O)=O)c3)nccc2n1` [Example 41, N-(3-((1S,2R,5R)-4-amino-5-(fluoromethyl)-2-methyl-8,8-dioxido-8-thia-3-azabicyclo[3.2.1]oct-3-en-2-yl)-4-fluorophenyl)-2-methoxypyrido[3,4-b]pyrazin-5-amine], the concentration for half-maximal inhibition (IC50) on Cathepsin D (Cat D) is 867 µM; on BACE1, 0.009 µM; in test [1], 0.015 µM.

On to `C[C@]1(c2cc(Nc3nccc4cc(C#N)cnc34)ccc2F)N=C(N)[C@@]2(CF)CC[C@@H]1S2(=O)=O` [Example 100, 8-((3-((1S,2R,5R)-4-amino-5-(fluoromethyl)-2-methyl-8,8-dioxido-8-thia-3-azabicyclo[3.2.1]oct-3-en-2-yl)-4-fluorophenyl)amino)-1,7-naphthyridine-3-carbonitrile], for which the IC50 at Cathepsin D (Cat D) came out at 337 µM; on BACE1 it was 0.001 µM; in test [1], 0.004 µM.

As for `COc1cnc(C(=O)Nc2ccc(F)c([C@@]3(C)N=C(N)[C@@]4(C)CC[C@@H]3S4(=O)=O)c2)cn1` [Example 61, N-(3-((1S,2R,5R)-4-amino-2,5-dimethyl-8,8-dioxido-8-thia-3-azabicyclo[3.2.1]oct-3-en-2-yl)-4-fluorophenyl)-5-methoxy-2-pyrazinecarboxamide], the IC50 worked out at 2500 µM at Cathepsin D (Cat D), 0.005 µM at BACE1 and 0.002 µM in test [1].

Regarding `C#CCOc1ccc(C(=O)Nc2ccc(F)c([C@@]3(C)N=C(N)[C@@]4(CF)CC[C@@H]3S4(=O)=O)c2)nc1` [Example 52, N-(3-((1S,2R,5R)-4-amino-5-(fluoromethyl)-2-methyl-8,8-dioxido-8-thia-3-azabicyclo[3.2.1]oct-3-en-2-yl)-4-fluorophenyl)-5-(2-propyn-1-yloxy)-2-pyridinecarboxamide], the IC50 at Cathepsin D (Cat D) stood at 811 µM; at BACE1, 0.001 µM; in test [1], 0.004 µM.

With `Cc1cc(OC(F)F)cnc1C(=O)Nc1ccc(F)c([C@@]2(C)N=C(N)[C@@]3(CF)CC[C@@H]2S3(=O)=O)c1` [Example 102, N-(3-((1S,2R,5R)-4-amino-5-(fluoromethyl)-2-methyl-8,8-dioxido-8-thia-3-azabicyclo[3.2.1]oct-3-en-2-yl)-4-fluorophenyl)-5-(difluoromethoxy)-3-methyl-2-pyridinecarboxamide], the IC50 at Cathepsin D (Cat D) amounted to 451 µM; at BACE1 it was 0.004 µM; in test [1], 0.002 µM.
